# Patent publication US6753295B1, “Plant activator, process for producing the same, activation method, activity promoter and method for applying the promoter” (Hokkaido Green Kosan, Incorporated, priority 1999, dated 2004)
# Experiments:
# Format in all cases: cell-based
# E. coli NIHJ JC-2 = assay: MIC, agar plate dilution method; conditions: E.coliNIHJ JC-2
# Experimental: (§1) 22 strains in total, that is, 1 strain of S. aureus 209P JC-1, 20 strains of 1G-stored, clinically separated Staphylococcus (10 strains each of MSSA and MRSA), and 1 strain of E. coli NIHJ JC-2 as the standard strain.
# (§2) MW:168, methicilin (DMPPC, staphcililn for injection, Lot. No. FSB […], Banyu Pharmaceutical Co., Ltd.), vancomycin (VCM, Lot. No. 41H0457, 10750, SIGMA).
# (§3) Mueller-Hinton agar (MIA, Difco) was used for measurement of antimicrobial properties, and Mueller Hinton broth (MHB, Difco) was used for pre-cultivation.
# (§4) The minimum inhibitory concentration (MIC) of each chemical against the used strain was determined according to an agar plate dilution method in accordance with the standard methods of Japanese Society of Chemotherapy. The strain was sprayed onto MHA and cultured at 37° C. overnight, and the resultant colonies were cultured in MHB at 37° C. overnight, and its microbial liquid was diluted 100-fold (1000-fold dilution for E. coli) and used as inoculation liquid.
# S. aureus 209P JC-1 = assay: MIC, agar plate dilution method; conditions: S.aureu209P JC-1
# Experimental: as §1, §2, §3, §4
# [1] = tested on: clinically separated Staphylococcus (MSSA and MRSA); assay: MIC, agar plate dilution method
# Experimental: as §1, §2, §3, §4
# [2] = tested on: Xanthomonoas Campestris pv. citri; assay: paper disk bioassay of the purified product against bacteria; conditions: 1000, 500 and 250 ppm; 37° C., 18 hours
# Experimental: (§5) An agar medium containing a test bacterium was placed in a Petri dish and fixed therein. A paper disk containing the sample was placed thereon and incubated at 37° C. for 18 hours, and formation of a circle of inhibited growth was confirmed.
# (§6) The following 4 strains were used: Staphylococcus aureus 209P, Pseudomonas syringal, Xanthomonoas Campestris pv. citri, and Erwinia sp.
# (§7) For pre-culture, a bouillon medium (DIFCO) was used, and after overnight cultivation, the cultivation medium was diluted at ×10^2 and mixed with 0.5% upper-layer medium. As the medium for measuring the bacterium, Mycin agar (Mikumi Kagaku) was used.
# (§8) Upper layer−1.5% Mycin agar (Mikuni Kagaku)+0.5% Mycin agar mixed with the overnight cultivation (diluted at ×10^2) in 2% bouillon medium (DIFCO)
# (§9) Lower layer−2.0% Mycin agar (Mikuni Kagaku)
# (§10) A paper disk was impregnated with the isolated and purified product prepared at 1000 ppm, 500 ppm and 250 ppm respectively was air-dried, placed on the Petri dish and incubated at 37° C. for 18 hours, and whether a circle of inhibited growth was formed or not was observed.
# [3] = tested on: Staphylococcus aureus 209P; assay: as above; conditions: 1000, 500 and 250 ppm; 37° C., 18 hours
# Experimental: as §5, §6, §7, §8, §9, §10
# Pseudomonas syringal = assay: as above; conditions: 1000, 500 and 250 ppm; 37° C., 18 hours
# Experimental: as §5, §6, §7, §8, §9, §10
# Erwinia sp. = assay: as above; conditions: 1000, 500 and 250 ppm; 37° C., 18 hours
# Experimental: as §5, §6, §7, §8, §9, §10
SMILES,MIC (E. coli NIHJ JC-2) [micro gram/ml],MIC (S. aureus 209P JC-1) [micro gram/ml],MIC ([1]; MRSA TH948) [micro gram/ml],MIC ([1]; MRSA TH949) [micro gram/ml],MIC ([1]; MRSA TH950) [micro gram/ml],MIC ([1]; MRSA TH951) [micro gram/ml],MIC ([1]; MRSA TH952) [micro gram/ml],MIC ([1]; MRSA TH953) [micro gram/ml],MIC ([1]; MRSA TH954) [micro gram/ml],MIC ([1]; MRSA TH955) [micro gram/ml],MIC ([1]; MRSA TH956) [micro gram/ml],MIC ([1]; MRSA TH957) [micro gram/ml],MIC ([1]; MRSA TH972) [micro gram/ml],MIC ([1]; MRSA TH973) [micro gram/ml],MIC ([1]; MRSA TH974) [micro gram/ml],MIC ([1]; MRSA TH975) [micro gram/ml],MIC ([1]; MRSA TH976) [micro gram/ml],MIC ([1]; MRSA TH1350) [micro gram/ml],MIC ([1]; MRSA TH1351) [micro gram/ml],MIC ([1]; MRSA TH1352) [micro gram/ml],further results
"COc1cccc(OC)c1C(=O)N[C@@H]1C(=O)N2[C@@H]1SC(C)(C)[C@@H]2C(=O)O [DMPP, methicilin]",3.13,1.56,1.56,3.13,3.13,3.13,1.56,3.13,3.13,1.56,3.13,1.56,>12.5,>12.5,>12.5,>12.5,>12.5,12.5,6.25,>12.5,MIC ([1]; MRSA TH1353): >12.5 micro gram/ml; MIC ([1]; MRSA TH1354): >12.5 micro gram/ml
"O=C(O)/C=C/C1=CC(=O)CC1O (centres unmarked) [MW168, 3(3-hydroxy-cyclopropene 5-one-2-yl)2-propenoic acid]",>50,>50,>50,>50,>50,>50,>50,>50,>50,>50,>50,>50,>50,>50,>50,>50,>50,>50,>50,>50,circle of inhibited growth / activity against the bacteria [2]: no or less activity; circle of inhibited growth / activity against the bacteria [3]: no or less activity; circle of inhibited growth / activity against the bacteria (Pseudomonas syringal): no or less activity; circle of inhibited growth / activity against the bacteria (Erwinia sp.): no or less activity; MIC ([1]; MRSA TH1353): >50 micro gram/ml; MIC ([1]; MRSA TH1354): >50 micro gram/ml; antimicrobial properties against Staphylococcus ([1]; concentrations used 50˜0.10 micro gram/ml): no or less activity
"CN[C@H](CC(C)C)C(=O)N[C@H]1C(=O)N[C@@H](CC(N)=O)C(=O)N[C@H]2C(=O)N[C@H]3C(=O)N[C@H](C(=O)N[C@H](C(=O)O)c4cc(O)cc(O)c4-c4cc3ccc4O)[C@H](O)c3ccc(c(Cl)c3)Oc3cc2cc(c3O[C@@H]2O[C@H](CO)[C@@H](O)[C@H](O)[C@H]2O[C@H]2C[C@](C)(N)[C@H](O)[C@H](C)O2)Oc2ccc(cc2Cl)[C@H]1O [VCM, vancomycin]",>6.25,0.78,0.78,0.78,0.78,0.78,0.78,0.78,0.78,0.78,0.78,0.78,0.78,0.78,0.78,0.78,0.78,0.78,0.78,0.78,MIC ([1]; MRSA TH1353): 0.78 micro gram/ml; MIC ([1]; MRSA TH1354): 0.78 micro gram/ml
